PubChem BioAssay (NCI)
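Assay format: 96-well plates, 48-hour exposure. At the TGI there is no net growth.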

Columns and labels:
Experiment in all cases: NCI-60 cell line screen, 48 h
OVCAR-4 ovarian = tested on: OVCAR-4 ovarian
MALME-3M melanoma = tested on: MALME-3M melanoma
SW-620 colon = tested on: SW-620 colon
MDA-MB-435 = tested on: MDA-MB-435
OVCAR-5 ovarian = tested on: OVCAR-5 ovarian
OVCAR-8 ovarian = tested on: OVCAR-8 ovarian
HCC-2998 colon = tested on: HCC-2998 colon
LOX IMVI melanoma = tested on: LOX IMVI melanoma
UACC-257 melanoma = tested on: UACC-257 melanoma
SN12C renal = tested on: SN12C renal
IGROV1 ovarian = tested on: IGROV1 ovarian
EKVX NSCLC = tested on: EKVX NSCLC
HCT-116 colon = tested on: HCT-116 colon
MDA-N = tested on: MDA-N
SF-268 CNS = tested on: SF-268 CNS
K-562 leukemia = tested on: K-562 leukemia
UACC-62 melanoma = tested on: UACC-62 melanoma
NCI-H226 lung = tested on: NCI-H226 lung
SK-OV-3 ovarian = tested on: SK-OV-3 ovarian
COLO 205 colon = tested on: COLO 205 colon
TK-10 renal = tested on: TK-10 renal
BT-549 breast = tested on: BT-549 breast
SK-MEL-5 melanoma = tested on: SK-MEL-5 melanoma
U251 CNS = tested on: U251 CNS
786-0 renal = tested on: 786-0 renal
SR leukemia = tested on: SR leukemia
KM12 colon = tested on: KM12 colon
RXF 393 renal = tested on: RXF 393 renal
HOP-92 NSCLC = tested on: HOP-92 NSCLC
MCF7 breast = tested on: MCF7 breast
CCRF-CEM leukemia = tested on: CCRF-CEM leukemia
CAKI-1 renal = tested on: CAKI-1 renal
A549 NSCLC = tested on: A549 NSCLC
NCI-H23 lung = tested on: NCI-H23 lung
RPMI-8226 leukemia = tested on: RPMI-8226 leukemia
MOLT-4 leukemia = tested on: MOLT-4 leukemia
NCI-H460 lung = tested on: NCI-H460 lung
SNB-19 CNS = tested on: SNB-19 CNS
HCT-15 colon = tested on: HCT-15 colon
SK-MEL-2 melanoma = tested on: SK-MEL-2 melanoma
SNB-75 CNS = tested on: SNB-75 CNS
T-47D breast = tested on: T-47D breast
OVCAR-3 ovarian = tested on: OVCAR-3 ovarian
SF-295 CNS = tested on: SF-295 CNS
HOP-62 NSCLC = tested on: HOP-62 NSCLC
SF-539 CNS = tested on: SF-539 CNS
UO-31 renal = tested on: UO-31 renal
PC-3 prostate = tested on: PC-3 prostate
HT29 colon = tested on: HT29 colon
M14 melanoma = tested on: M14 melanoma
NCI-H522 lung = tested on: NCI-H522 lung
NCI/ADR-RES ovarian = tested on: NCI/ADR-RES ovarian
A498 renal = tested on: A498 renal
SK-MEL-28 melanoma = tested on: SK-MEL-28 melanoma
MDA-MB-231 breast = tested on: MDA-MB-231 breast
DU-145 prostate = tested on: DU-145 prostate
ACHN renal = tested on: ACHN renal
HS 578T breast = tested on: HS 578T breast
HL-60(TB) leukemia = tested on: HL-60(TB) leukemia

O=C(CCC1CCCCC1)NCc1ccc(C(=O)O)cc1
TGI (OVCAR-4 ovarian): > 100 µM
TGI (MALME-3M melanoma): > 100 µM
TGI (SW-620 colon): > 100 µM
TGI (MDA-MB-435): > 100 µM
TGI (OVCAR-5 ovarian): > 100 µM
TGI (OVCAR-8 ovarian): > 100 µM
TGI (HCC-2998 colon): > 100 µM
TGI (LOX IMVI melanoma): > 100 µM
TGI (UACC-257 melanoma): > 100 µM
TGI (SN12C renal): > 100 µM
TGI (IGROV1 ovarian): > 100 µM
TGI (EKVX NSCLC): > 100 µM
TGI (HCT-116 colon): > 100 µM
TGI (MDA-N): > 100 µM
TGI (SF-268 CNS): > 100 µM
TGI (K-562 leukemia): > 100 µM
TGI (UACC-62 melanoma): > 100 µM
TGI (NCI-H226 lung): > 100 µM
TGI (SK-OV-3 ovarian): > 100 µM
TGI (COLO 205 colon): > 100 µM
TGI (TK-10 renal): > 100 µM
TGI (BT-549 breast): > 100 µM
TGI (SK-MEL-5 melanoma): > 100 µM
TGI (U251 CNS): > 100 µM
TGI (786-0 renal): > 100 µM
TGI (SR leukemia): > 100 µM
TGI (KM12 colon): > 100 µM
TGI (RXF 393 renal): > 100 µM
TGI (HOP-92 NSCLC): > 100 µM
TGI (MCF7 breast): > 100 µM
TGI (CCRF-CEM leukemia): > 100 µM
TGI (CAKI-1 renal): > 100 µM
TGI (A549 NSCLC): > 100 µM
TGI (NCI-H23 lung): > 100 µM
TGI (RPMI-8226 leukemia): > 100 µM
TGI (MOLT-4 leukemia): > 100 µM
TGI (NCI-H460 lung): > 100 µM
TGI (SNB-19 CNS): > 100 µM
TGI (HCT-15 colon): > 100 µM
TGI (SK-MEL-2 melanoma): > 100 µM
TGI (SNB-75 CNS): > 100 µM
TGI (T-47D breast): > 100 µM
TGI (OVCAR-3 ovarian): > 100 µM
TGI (SF-295 CNS): > 100 µM
TGI (HOP-62 NSCLC): > 100 µM
TGI (SF-539 CNS): > 100 µM
TGI (UO-31 renal): > 100 µM
TGI (PC-3 prostate): > 100 µM
TGI (HT29 colon): > 100 µM
TGI (M14 melanoma): > 100 µM
TGI (NCI-H522 lung): > 100 µM
TGI (NCI/ADR-RES ovarian): > 100 µM
TGI (A498 renal): > 100 µM
TGI (SK-MEL-28 melanoma): > 100 µM
TGI (MDA-MB-231 breast): > 100 µM
TGI (DU-145 prostate): > 100 µM
TGI (ACHN renal): > 100 µM

CNC(=O)c1ccc(C(=O)NCCCCCN(O)C(=O)CCC(=O)NCCCCCN(O)C(=O)CCC(=O)NCCCCCN(O)C(C)=O)c(O)c1O
TGI (OVCAR-4 ovarian): > 100 µM
TGI (MALME-3M melanoma): > 100 µM
TGI (SW-620 colon): > 100 µM
TGI (MDA-MB-435): > 100 µM
TGI (OVCAR-5 ovarian): > 100 µM
TGI (HS 578T breast): > 100 µM
TGI (OVCAR-8 ovarian): > 100 µM
TGI (HCC-2998 colon): > 100 µM
TGI (LOX IMVI melanoma): > 100 µM
TGI (UACC-257 melanoma): > 100 µM
TGI (SN12C renal): > 100 µM
TGI (IGROV1 ovarian): > 100 µM
TGI (HCT-116 colon): > 100 µM
TGI (MDA-N): > 100 µM
TGI (SF-268 CNS): > 100 µM
TGI (K-562 leukemia): > 100 µM
TGI (UACC-62 melanoma): > 100 µM
TGI (NCI-H226 lung): > 100 µM
TGI (SK-OV-3 ovarian): > 100 µM
TGI (COLO 205 colon): > 100 µM
TGI (TK-10 renal): > 100 µM
TGI (BT-549 breast): > 100 µM
TGI (SK-MEL-5 melanoma): > 100 µM
TGI (U251 CNS): > 100 µM
TGI (786-0 renal): > 100 µM
TGI (KM12 colon): > 100 µM
TGI (RXF 393 renal): > 100 µM
TGI (HOP-92 NSCLC): > 100 µM
TGI (MCF7 breast): > 100 µM
TGI (CCRF-CEM leukemia): 31 µM
TGI (CAKI-1 renal): > 100 µM
TGI (A549 NSCLC): > 100 µM
TGI (NCI-H23 lung): > 100 µM
TGI (RPMI-8226 leukemia): > 100 µM
TGI (NCI-H460 lung): > 100 µM
TGI (SNB-19 CNS): > 100 µM
TGI (HCT-15 colon): > 100 µM
TGI (SK-MEL-2 melanoma): > 100 µM
TGI (SNB-75 CNS): > 100 µM
TGI (OVCAR-3 ovarian): > 100 µM
TGI (SF-295 CNS): > 100 µM
TGI (HL-60(TB) leukemia): > 100 µM
TGI (HOP-62 NSCLC): > 100 µM
TGI (SF-539 CNS): > 100 µM
TGI (UO-31 renal): > 100 µM
TGI (PC-3 prostate): > 100 µM
TGI (HT29 colon): > 100 µM
TGI (M14 melanoma): > 100 µM
TGI (NCI-H522 lung): > 100 µM
TGI (NCI/ADR-RES ovarian): > 100 µM
TGI (A498 renal): > 100 µM
TGI (SK-MEL-28 melanoma): > 100 µM
TGI (MDA-MB-231 breast): > 100 µM
TGI (DU-145 prostate): > 100 µM
TGI (ACHN renal): > 100 µM
